According to PMC10818380, “Triphenylphosphonium Analogs of Short Peptide Related to Bactenecin 7 and Oncocin 112 as Antimicrobial Agents” (Pharmaceutics, 2024):
Read-outs that look alike come from different tables or passages of the source.

Tests used:
A549 = experiment: cells
Method: (§1) The cytotoxicity of the substances under study was tested using the MTT (3-(4,5-dimethylthiazol-2-yl)-2,5-diphenyltetrazolium bromide) assay with some modifications. The detailed procedure for the MTT assay is given in the Supplementary Materials (Section S5).
(§2) Two thousand five hundred cells per well for the MCF7, HEK293T, and A549 cell lines or 4000 cells per well for the VA13 cell line were plated in 135 µL of DMEM-F12 media with 10% FBS (both Gibco, Waltham, MA, USA) in a 96-well plate and were incubated in a 5% CO2 incubator for the first 16 h, without treatment. Then 15 µL of media-DMSO solutions of the tested substances were added to the cells (the final DMSO concentrations in the media were 1% or less), and the cells were treated for 72 h with 25 nM–50 µM (eight dilutions) of the tested substances (triplicate each). Serial dilutions of DMSO and doxorubicin were used as controls. The MTT reagent (Paneco LLC, Moscow, Russia) was then added to the cells at a final concentration of 0.5 g/L (10× stock solution in PBS was used) and incubated for 2.5 h at 37 °C in the incubator under an atmosphere of 5%
(§3) CO2. The MTT solution was then discarded, and 140 µL of DMSO (PharmaMed LLC, Krasnodar, Russia) was added. The plates were swayed on a shaker (60 rpm) to dissolve the formazan. The absorbance was measured using the VICTOR X5 Multilabel Plate Reader (PerkinElmer, Wa l th a m, MA, USA) at a wavelength of 565 nm (in order to measure formazan concentration). The resu l ts were used to construct a dose-response graph and to estimate IC50 values.
(§4) Figure S11.The dependencies of viability of cells after treatment by tested compounds.
(§5) (1 picture or pasted object on this page, not shown here)

E. coli JW0368 ΔsbmA = experiment: microbe, parasite or virus in culture; format: cell-based; details: E. coli ∆sbmA, 37 °C, 18 h
Method: (§6) The MIC values for Bac(1–10), Bac(1–10, R/Y), Bac(1–10, R/Y)-Cn-TPP, TPP-C10-Bac(1–10, R/Y), and Onc112 were determined via LB broth microdilution, as recommended by CLSI in the Methods for Dilution Antimicrobial Susceptibility Tests for Bacteria that Grow Aerobically, Approved Standard, 9th ed., CLSI document M07-A9, using in-house-prepared panels. The compounds were diluted in a 96-well microtiter plate to final concentrations ranging from 0.1 to 100 µM in a 200 µL aliquot of the bacterial suspension, followed by incubation at 37 °C for 18 h. The cell concentration was estimated according to the absorbance (A600). The measurements were performed with a VICTOR X5 Multilabel Plate Reader (PerkinElmer, Waltham, MA, USA). The following bacterial strains were used: E. coli BW25113, E. coli JW0368 ΔsbmA, B. subtilis 168, and B. subtilis CFR [39].

B. subtilis CFR = experiment: microbe, parasite or virus in culture; format: cell-based; details: B. subtilis-CFR (chloramphenicol-resistant), 37 °C, 18 h
Method: as §6

E. coli BW25113 = experiment: microbe, parasite or virus in culture; format: cell-based; details: E. coli BW25113, 37 °C, 18 h
Method: as §6

B. subtilis 168 = experiment: microbe, parasite or virus in culture; format: cell-based; details: B. subtilis 168, 37 °C, 18 h
Method: as §6

MCF7 = experiment: cells; format: cell-based, human
Method: as §1, §2, §3, §4, §5

VA13 = experiment: cells; format: cell-based, human
Method: as §1, §2, §3, §4, §5

HEK293T = experiment: cells; format: cell-based, human; details: 72 h
Method: as §1, §2, §3, §4, §5

70S E. coli ribosome = experiment: Competition-binding assay, displacement of BODIPY-Bac(1–10), fluorescence anisotropy; details: CI (α = 0.05), read-out: apparent dissociation constant (KD)
Method: 70S ribosomes were isolated from E. coli MRE600 cells according to a published procedure. The binding of BODIPY-Bac(1–10) to 70S E. coli ribosomes was performed according to the following procedure. BODIPY-Bac(1–10) (16 nM) was incubated with ribosomes (from 0.5 nM to 2000 nM) for 2 h at 26 °C in a buffer containing 20 mM of HEPES-KOH (pH 7.5), 50 mM of NH4Cl, 10 mM of Mg(CH3COO)2, 4 mM of β-mercaptoethanol, and 0.05% Tween-20. The binding affinities of peptides 1 and 2, their TPP analogs 3–5, as well as the control compounds for the E. coli ribosome were analyzed via a competition-binding assay using fluorescently labeled BODIPY-Bac(1–10) or BODIPY-ERY, as described before in [38, 54]. The fluorescent compound (16 nM) was mixed with ribosomes (84 nM for BODIPY-Bac(1–10) and 46 nM for BODIPY-ERY) in the buffer. Solutions of the tested compounds were added to the obtained complexes to final concentrations ranging from 0.01 to 100 µM. The mixtures were incubated for 2 h at 26 °C, and then the values of fluorescence anisotropy were measured with a VICTOR X5 Multilabel Plate Reader (PerkinElmer, Waltham, MA, USA) using a 384-well plate. The excitation wavelength was 485 nm, and the emission wavelength was 535 nm. From the data obtained, apparent dissociation constants were calculated.

B. subtilis = experiment: Membrane potential with fluorescent probe diS-C3-(5); format: cell-based; details: 50 µM, diS-C3-(5) fluorescence
Method: The membrane potential of B. subtilis was assessed by measuring the fluorescence emitted by the potential-dependent probe, diS-C3-(5). Bacterial cells derived from the overnight culture of B. subtilis were inoculated into a fresh LB medium and allowed to grow for 24 h until reaching an optical density of 0.8 at 600 nm. Subsequently, the bacteria were subjected to a 20-fold dilution in a buffer comprising 100 mM of KCl and 10 mM of Tris, adjusted to a pH of 7.4. Fluorescence measurements were conducted at 670 nm (with excitation at 630 nm) using a Fluorat-02-Panorama fluorimeter manufactured by Lumex Instruments in St. Petersburg, Russia.

[1] = test system: E. coli JW5503 (∆tolC) (KanS) pDualrep2; experiment: pDualrep2 double-reporter agar plate test; format: cell-based; details: 1 µL of 10 mM solution on agar plate
Method: The “pDualrep2” system was used to evaluate the mechanism of the antimicrobial action of the synthesized compounds. This system is based on the hypersensitive strain E. coli JW5503 (∆tolC) (KanS) transformed with the “pDualrep2” plasmid, which allows one to sort out suppressors of protein synthesis or SOS response inducers. Briefly, 1 µL of 10 mM water solutions of Bac(1–10), Bac(1–10, R/Y), Bac(1–10, R/Y)-Cn-TPP, TPP-C10-Bac(1–10, R/Y), and Onc112 were applied onto the agar plate that already contained a layer of the reporter strain E. coli JW5503 (∆tolC) (KanS) pDualrep2, and then the plate was incubated overnight at 37 °C. The agar plate was scanned using the ChemiDoc^TM Imaging System (Bio-Rad Laboratories, Hercules, CA, USA), containing two channels, “Cy3-blot” (553/574 nm; green pseudocolor) for Turbo Red Fluorescent Protein (TurboRFP) detection and “Cy5-blot” (588/633 nm; red pseudocolor) for Katushka2S fluorescence. […] Levofloxacin (LEV; 50 μg/mL, 1 μL) and erythromycin (ERY; 5 mg/mL, 1 μL) were utilized as positive controls for DNA and protein synthesis inhibitors, respectively.

[2] = test system: bacterial translation (E. coli S30 extract); experiment: In vitro translation inhibition of firefly luciferase mRNA, E. coli S30 extract; format: biochemical; details: 30 µM
Method: Briefly, in vitro-transcribed firefly luciferase mRNA (fluc) was translated using the E. coli S30 Extract System for Linear Templates (Promega, Madison, WI, USA). Reaction mixtures (with a 5 μL total volume) supplemented with 0.1 mM of a mixture of all canonical amino acids, 4 U of RiboLock RNase Inhibitor (Thermo Fisher Scientific, Waltham, MA, USA), and 0.1 mM of D-luciferin (Sigma-Aldrich, Burlington, MA, USA) were pre-incubated at RT for 5 min after the addition of the tested compounds at a final concentration of 30 µM. Then, 50 ng of the mRNA was added to each reaction tube, and the mixtures were immediately subjected to continuous chemiluminescence measurements using the VICTOR X5 Multilabel Plate Reader (PerkinElmer, Waltham, MA, USA) at 37 °C for 30 min. The maximal rates of the firefly luciferase (Fluc) accumulation were calculated using the OriginPro 7.5 software. The values were normalized to a positive control (0.3% DMSO, assigned a value of 100%).

| Compound | IC50 (A549; read-out: IC50 (50% inhibition of viability of cells), A549, 72 h, MTT) [µM] | MIC (E. coli JW0368 ΔsbmA) [µM] | MIC (B. subtilis CFR) [µM] | MIC (E. coli BW25113) [µM] | MIC (B. subtilis 168) [µM] | IC50 (MCF7; MCF7, 72 h, MTT, read-out: IC50 (50% inhibition of viability of cells)) [µM] | IC50 (VA13; VA13, 72 h, MTT, read-out: IC50 (50% inhibition of viability of cells)) [µM] | IC50 (HEK293T; HEK293T, MTT, read-out: IC50 (50% inhibition of viability of cells)) [µM] | IC50 (A549; 72 h) [µM] | Kd (70S E. coli ribosome) [µM] | IC50 (MCF7; 72 h) [µM] | IC50 (VA13; 72 h) [µM] | IC50 (HEK293T) [µM] | effect on membrane potential of B. subtilis (B. subtilis) | inhibitory effect on growth of bacterial cells [1] | inhibition of bacterial translation of firefly luciferase (Fluc) mRNA [2] | IC50 (A549; Homo sapiens, A549, 72 h, read-out: IC50 (50% inhibition of viability of cells)) [µM] | IC50 (MCF7; Homo sapiens, MCF7, 72 h, MTT, read-out: IC50 (50% inhibition of viability of cells)) [µM] | IC50 (VA13; Homo sapiens, VA-13, VA13, 72 h, MTT, read-out: IC50 (50% inhibition of viability of cells)) [µM] | IC50 (HEK293T; Homo sapiens, HEK-293T, HEK293T, MTT, read-out: IC50 (50% inhibition of viability of cells)) [µM] |
| --- | --- | --- | --- | --- | --- | --- | --- | --- | --- | --- | --- | --- | --- | --- | --- | --- | --- | --- | --- | --- |
| CCCC[P+](c1ccccc1)(c1ccccc1)c1ccccc1 [C4-TPP, reference compound] | 6.2 ± 0.9 | >100 | >100 | >100 | >100 | 8 ± 2 | 11 ± 2 | 2.9 ± 0.5 | – | – | – | – | – | – | – | – | – | – | – | – |
| H-RRIRPRPPYL-OH [Compound 2, Bac(1–10, R/Y)] | – | >100 | – | >100 | – | – | – | – | > 50 | 1 ± 0.1 | > 20 | > 50 | > 50 | did not affect the membrane potential | did not exhibit any antibacterial activity | practically did not inhibit | – | – | – | – |
| COc1cccc2c1C(=O)c1c(O)c3c(c(O)c1C2=O)C[C@@](O)(C(=O)CO)C[C@@H]3O[C@H]1C[C@H](N)[C@H](O)[C@H](C)O1 [Doxorubicin, reference compound] | – | – | – | – | – | – | – | – | – | – | – | – | – | – | – | – | 1.2 ± 0.1 | 1.7 ± 0.2 | 1.2 ± 0.3 | < 1.6 |
